# Source: PubChem BioAssay AID1963976 (Molecular Pharmacology Branch, DTP, NCI, 2024)
# Tested on: 435261-313-R-J1-PDC tumor spheroid viability
# Assay: Anticancer human tumor 435261-313-R-J1-PDC patient-derived colon adenocarcinoma cell line growth inhibition [PI3K]
# Conditions: spheroids with HUVEC and MSC; for IC50: curve of first compound; for viability, T/C: stronger effect = lower value
# How it was run: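 Tumor cells were combined with HUVEC and MSCs into spheroids, then dosed with PI3K-inhibitor combinations over half-log ranges capped near clinical Cmax or 10 microM.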
# [1] = second compound 0.00316 µM, first compound 0.0316 µM
# [2] = second compound 0.00316 µM, first compound 0.1 µM
# [3] = second compound 0.00316 µM, first compound 0.316 µM
# [4] = second compound 0.00316 µM, first compound 1 µM
# [5] = second compound 0.00316 µM, first compound 3.16 µM
# [6] = second compound 0.00316 µM, first compound 10 µM
# [7] = second compound 0.01 µM, first compound 0.0316 µM
# [8] = second compound 0.01 µM, first compound 0.1 µM
# [9] = second compound 0.01 µM, first compound 0.316 µM
# [10] = second compound 0.01 µM, first compound 1 µM
# [11] = second compound 0.01 µM, first compound 3.16 µM
# [12] = second compound 0.01 µM, first compound 10 µM
# [13] = second compound 0.0316 µM, first compound 0.0316 µM
# [14] = second compound 0.0316 µM, first compound 0.1 µM
# [15] = second compound 0.0316 µM, first compound 0.316 µM
# [16] = second compound 0.0316 µM, first compound 1 µM
# [17] = second compound 0.0316 µM, first compound 3.16 µM
# [18] = second compound 0.0316 µM, first compound 10 µM
# [19] = second compound 0.1 µM, first compound 0.0316 µM
# [20] = second compound 0.1 µM, first compound 0.1 µM
# [21] = second compound 0.1 µM, first compound 0.316 µM
# [22] = second compound 0.1 µM, first compound 1 µM
# [23] = second compound 0.1 µM, first compound 3.16 µM
# [24] = second compound 0.1 µM, first compound 10 µM
# [25] = second compound 0.316 µM, first compound 0.0316 µM
# [26] = second compound 0.316 µM, first compound 0.1 µM
# [27] = second compound 0.316 µM, first compound 0.316 µM
# [28] = second compound 0.316 µM, first compound 1 µM
# [29] = second compound 0.316 µM, first compound 3.16 µM
# [30] = second compound 0.316 µM, first compound 10 µM
# [31] = second compound 1 µM, first compound 0.0316 µM
# [32] = second compound 1 µM, first compound 0.1 µM
# [33] = second compound 1 µM, first compound 0.316 µM
# [34] = second compound 1 µM, first compound 1 µM
# [35] = second compound 1 µM, first compound 3.16 µM
# [36] = second compound 1 µM, first compound 10 µM
# 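Also: spheroids exposed to compounds for 7 days.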
smiles,measurement,setting,value
C#Cc1c(F)ccc2cc(O)cc(-c3ncc4c(N5CC6CCC(C5)N6)nc(OCC56CCCN5CC(F)C6)nc4c3F)c12 (stereo unspecified) + CC(Nc1ccc2c(c1)OCCn1cc(N3C(=O)OCC3C(F)F)nc1-2)C(N)=O,IC50,second compound 0.00316 µM,3730 nM
same,IC50,second compound 0.01 µM,2040 nM
same,IC50,second compound 0.0316 µM,1920 nM
same,IC50,second compound 0.1 µM,85.9 nM
same,IC50,second compound 0.316 µM,< 31.6 nM
same,IC50,second compound 1 µM,< 31.6 nM
same,"viability, T/C",[1],73.9%
same,"viability, T/C",[2],91.2%
same,"viability, T/C",[3],85.6%
same,"viability, T/C",[4],98.2%
same,"viability, T/C",[5],54.1%
same,"viability, T/C",[6],25.7%
same,"viability, T/C",[7],74.4%
same,"viability, T/C",[8],93.9%
same,"viability, T/C",[9],90.7%
same,"viability, T/C",[10],65.8%
same,"viability, T/C",[11],41.1%
same,"viability, T/C",[12],28.8%
same,"viability, T/C",[13],54.5%
same,"viability, T/C",[14],65.7%
same,"viability, T/C",[15],66.2%
same,"viability, T/C",[16],76.5%
same,"viability, T/C",[17],38.1%
same,"viability, T/C",[18],13.8%
same,"viability, T/C",[19],43.9%
same,"viability, T/C",[20],57%
same,"viability, T/C",[21],47.4%
same,"viability, T/C",[22],33.2%
same,"viability, T/C",[23],22.6%
same,"viability, T/C",[24],12.3%
same,"viability, T/C",[25],21.7%
same,"viability, T/C",[26],21.6%
same,"viability, T/C",[27],26.5%
same,"viability, T/C",[28],17.5%
same,"viability, T/C",[29],15.1%
same,"viability, T/C",[30],7.18%
same,"viability, T/C",[31],18.9%
same,"viability, T/C",[32],14.5%
same,"viability, T/C",[33],13.1%
same,"viability, T/C",[34],12%
same,"viability, T/C",[35],7.99%
same,"viability, T/C",[36],3.34%
CC(Cn1ccc(-c2ccc(C#N)c(Cl)c2)n1)NC(=O)c1cc(C(C)O)[nH]n1 (stereo unspecified) + CC(Nc1ccc2c(c1)OCCn1cc(N3C(=O)OCC3C(F)F)nc1-2)C(N)=O,IC50,second compound 0.00316 µM,> 10000 nM
same,IC50,second compound 0.01 µM,> 10000 nM
same,IC50,second compound 0.0316 µM,> 10000 nM
same,IC50,second compound 0.1 µM,< 31.6 nM
same,IC50,second compound 0.316 µM,< 31.6 nM
same,IC50,second compound 1 µM,< 31.6 nM
same,"viability, T/C",[1],75.6%
same,"viability, T/C",[2],79.1%
same,"viability, T/C",[3],93.8%
same,"viability, T/C",[4],106%
same,"viability, T/C",[5],94.3%
same,"viability, T/C",[6],106%
same,"viability, T/C",[7],53.1%
same,"viability, T/C",[8],90.6%
same,"viability, T/C",[9],105%
same,"viability, T/C",[10],106%
same,"viability, T/C",[11],82.4%
same,"viability, T/C",[12],95.1%
same,"viability, T/C",[13],74.5%
same,"viability, T/C",[14],78.5%
same,"viability, T/C",[15],93%
same,"viability, T/C",[16],77.4%
same,"viability, T/C",[17],95.9%
same,"viability, T/C",[18],86.2%
same,"viability, T/C",[19],41.5%
same,"viability, T/C",[20],54.3%
same,"viability, T/C",[21],40.1%
same,"viability, T/C",[22],44%
same,"viability, T/C",[23],46.2%
same,"viability, T/C",[24],53.8%
same,"viability, T/C",[25],28.6%
same,"viability, T/C",[26],24.6%
same,"viability, T/C",[27],20.2%
same,"viability, T/C",[28],21.7%
same,"viability, T/C",[29],25.9%
same,"viability, T/C",[30],27.5%
same,"viability, T/C",[31],17.1%
same,"viability, T/C",[32],17%
same,"viability, T/C",[33],18.3%
same,"viability, T/C",[34],19.2%
same,"viability, T/C",[35],16.9%
same,"viability, T/C",[36],20.5%
CC1(C)CCC(Nc2ncc(C(F)(F)F)c(-c3c[nH]c4c(P(C)(C)=O)c(C#N)ccc34)n2)CN1 (stereo unspecified) + CC(Nc1ccc2c(c1)OCCn1cc(N3C(=O)OCC3C(F)F)nc1-2)C(N)=O,IC50,second compound 0.00316 µM,1200 nM
same,IC50,second compound 0.01 µM,1040 nM
same,IC50,second compound 0.0316 µM,< 31.6 nM
same,IC50,second compound 0.1 µM,< 31.6 nM
same,IC50,second compound 0.316 µM,< 31.6 nM
same,IC50,second compound 1 µM,< 31.6 nM
same,"viability, T/C",[1],46.7%
same,"viability, T/C",[2],58.8%
same,"viability, T/C",[3],43.8%
same,"viability, T/C",[4],58.8%
same,"viability, T/C",[5],39.4%
same,"viability, T/C",[6],0.93%
same,"viability, T/C",[7],52%
same,"viability, T/C",[8],53.4%
same,"viability, T/C",[9],48%
same,"viability, T/C",[10],51.3%
same,"viability, T/C",[11],38.6%
same,"viability, T/C",[12],0.98%
same,"viability, T/C",[13],44.4%
same,"viability, T/C",[14],47.9%
same,"viability, T/C",[15],38.8%
same,"viability, T/C",[16],40.8%
same,"viability, T/C",[17],33.4%
same,"viability, T/C",[18],0.99%
same,"viability, T/C",[19],30%
same,"viability, T/C",[20],31.6%
same,"viability, T/C",[21],27.2%
same,"viability, T/C",[22],30.2%
same,"viability, T/C",[23],24.5%
same,"viability, T/C",[24],0.45%
same,"viability, T/C",[25],24.2%
same,"viability, T/C",[26],22.8%
same,"viability, T/C",[27],20.1%
same,"viability, T/C",[28],20.2%
same,"viability, T/C",[29],15%
same,"viability, T/C",[30],0.63%
same,"viability, T/C",[31],20.9%
same,"viability, T/C",[32],15%
same,"viability, T/C",[33],17%
same,"viability, T/C",[34],18.8%
same,"viability, T/C",[35],10.4%
same,"viability, T/C",[36],0.26%
